Measurements published in ChEMBL document CHEMBL1130059, “Neurotrophic 3,9-bis[(alkylthio)methyl]-and-bis(alkoxymethyl)-K-252a derivatives” (J Med Chem, 1997).
Each block holds one compound with its values, some of them ahead of it.

Tests used:
[1] = target: T1, Choline O-acetyltransferase (Rattus norvegicus) (UniProt P32738); assay: Neurotrophic activity as measured by the ability to enhance basal forebrain choline acetyl transferase at 50 nM; assay type: functional
T1 sequence (whole entry): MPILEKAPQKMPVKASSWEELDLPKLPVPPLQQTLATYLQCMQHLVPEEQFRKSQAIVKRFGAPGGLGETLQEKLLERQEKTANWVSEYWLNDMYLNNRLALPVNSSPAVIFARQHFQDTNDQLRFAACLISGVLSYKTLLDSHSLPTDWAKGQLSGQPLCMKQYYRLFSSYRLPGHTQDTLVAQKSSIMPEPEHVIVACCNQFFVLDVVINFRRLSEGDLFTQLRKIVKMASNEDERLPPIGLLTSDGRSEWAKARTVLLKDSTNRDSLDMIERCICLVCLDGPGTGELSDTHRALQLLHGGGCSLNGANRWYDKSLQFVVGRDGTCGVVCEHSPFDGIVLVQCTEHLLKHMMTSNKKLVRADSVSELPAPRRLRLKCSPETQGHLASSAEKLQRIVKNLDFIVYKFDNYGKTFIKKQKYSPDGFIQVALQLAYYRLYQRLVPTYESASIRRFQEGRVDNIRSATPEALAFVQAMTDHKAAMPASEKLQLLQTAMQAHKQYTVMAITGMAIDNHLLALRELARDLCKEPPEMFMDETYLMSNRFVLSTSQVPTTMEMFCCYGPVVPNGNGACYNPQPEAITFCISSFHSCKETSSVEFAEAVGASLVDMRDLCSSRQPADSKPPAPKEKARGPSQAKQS

[2] = target: T1, Choline O-acetyltransferase (Rattus norvegicus); assay: Neurotrophic activity as measured by the ability to enhance embryonic rat spinal cord choline acetyl transferase at 30 nM; assay type: functional
[3] = target: T1, Choline O-acetyltransferase (Rattus norvegicus); assay: Neurotrophic activity as measured by the ability to enhance basal forebrain choline acetyl transferase at 250 nM; assay type: functional
[4] = target: High affinity nerve growth factor receptor (Homo sapiens, UniProt P04629); assay: Ability to inhibit human trk A tyrosine kinase expressed in baculovirus using ELISA based enzyme assay was determined
Sequence of High affinity nerve growth factor receptor (P04629 whole entry): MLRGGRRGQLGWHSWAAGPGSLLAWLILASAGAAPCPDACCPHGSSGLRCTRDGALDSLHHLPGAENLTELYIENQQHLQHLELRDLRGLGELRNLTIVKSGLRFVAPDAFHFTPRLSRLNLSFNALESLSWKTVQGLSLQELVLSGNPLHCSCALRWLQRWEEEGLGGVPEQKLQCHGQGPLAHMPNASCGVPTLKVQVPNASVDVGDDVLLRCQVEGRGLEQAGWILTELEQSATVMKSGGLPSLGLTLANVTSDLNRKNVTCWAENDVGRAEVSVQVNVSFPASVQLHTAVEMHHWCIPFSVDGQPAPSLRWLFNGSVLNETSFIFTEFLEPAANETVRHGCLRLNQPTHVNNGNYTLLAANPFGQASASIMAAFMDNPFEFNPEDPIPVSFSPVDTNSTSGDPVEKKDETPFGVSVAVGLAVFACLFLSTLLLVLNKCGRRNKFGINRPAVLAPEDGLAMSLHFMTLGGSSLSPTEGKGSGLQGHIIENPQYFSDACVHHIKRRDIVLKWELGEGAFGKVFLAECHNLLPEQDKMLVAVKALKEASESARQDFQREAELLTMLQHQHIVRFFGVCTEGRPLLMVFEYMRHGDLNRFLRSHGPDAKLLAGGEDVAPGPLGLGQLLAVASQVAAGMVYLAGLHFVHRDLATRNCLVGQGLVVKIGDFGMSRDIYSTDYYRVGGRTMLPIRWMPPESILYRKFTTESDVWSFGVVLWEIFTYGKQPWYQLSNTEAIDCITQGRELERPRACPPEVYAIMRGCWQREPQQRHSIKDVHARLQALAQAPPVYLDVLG

[5] = target: T1, Choline O-acetyltransferase (Rattus norvegicus); assay: Neurotrophic activity as measured by the ability to enhance embryonic rat spinal cord choline acetyl transferase at 300 nM; assay type: functional
[6] = target: cAMP-dependent protein kinase alpha-catalytic subunit (Oryctolagus cuniculus, UniProt Q95J97); assay: Inhibition of cAMP dependent Protein kinase A of rabbit Skeletal Muscle.
[7] = target: Myosin light chain kinase, smooth muscle (Gallus gallus, UniProt P11799); assay: Inhibition of Smooth muscle myosin light chain kinase of chicken gizzard
Sequence of Myosin light chain kinase, smooth muscle (P11799 whole entry): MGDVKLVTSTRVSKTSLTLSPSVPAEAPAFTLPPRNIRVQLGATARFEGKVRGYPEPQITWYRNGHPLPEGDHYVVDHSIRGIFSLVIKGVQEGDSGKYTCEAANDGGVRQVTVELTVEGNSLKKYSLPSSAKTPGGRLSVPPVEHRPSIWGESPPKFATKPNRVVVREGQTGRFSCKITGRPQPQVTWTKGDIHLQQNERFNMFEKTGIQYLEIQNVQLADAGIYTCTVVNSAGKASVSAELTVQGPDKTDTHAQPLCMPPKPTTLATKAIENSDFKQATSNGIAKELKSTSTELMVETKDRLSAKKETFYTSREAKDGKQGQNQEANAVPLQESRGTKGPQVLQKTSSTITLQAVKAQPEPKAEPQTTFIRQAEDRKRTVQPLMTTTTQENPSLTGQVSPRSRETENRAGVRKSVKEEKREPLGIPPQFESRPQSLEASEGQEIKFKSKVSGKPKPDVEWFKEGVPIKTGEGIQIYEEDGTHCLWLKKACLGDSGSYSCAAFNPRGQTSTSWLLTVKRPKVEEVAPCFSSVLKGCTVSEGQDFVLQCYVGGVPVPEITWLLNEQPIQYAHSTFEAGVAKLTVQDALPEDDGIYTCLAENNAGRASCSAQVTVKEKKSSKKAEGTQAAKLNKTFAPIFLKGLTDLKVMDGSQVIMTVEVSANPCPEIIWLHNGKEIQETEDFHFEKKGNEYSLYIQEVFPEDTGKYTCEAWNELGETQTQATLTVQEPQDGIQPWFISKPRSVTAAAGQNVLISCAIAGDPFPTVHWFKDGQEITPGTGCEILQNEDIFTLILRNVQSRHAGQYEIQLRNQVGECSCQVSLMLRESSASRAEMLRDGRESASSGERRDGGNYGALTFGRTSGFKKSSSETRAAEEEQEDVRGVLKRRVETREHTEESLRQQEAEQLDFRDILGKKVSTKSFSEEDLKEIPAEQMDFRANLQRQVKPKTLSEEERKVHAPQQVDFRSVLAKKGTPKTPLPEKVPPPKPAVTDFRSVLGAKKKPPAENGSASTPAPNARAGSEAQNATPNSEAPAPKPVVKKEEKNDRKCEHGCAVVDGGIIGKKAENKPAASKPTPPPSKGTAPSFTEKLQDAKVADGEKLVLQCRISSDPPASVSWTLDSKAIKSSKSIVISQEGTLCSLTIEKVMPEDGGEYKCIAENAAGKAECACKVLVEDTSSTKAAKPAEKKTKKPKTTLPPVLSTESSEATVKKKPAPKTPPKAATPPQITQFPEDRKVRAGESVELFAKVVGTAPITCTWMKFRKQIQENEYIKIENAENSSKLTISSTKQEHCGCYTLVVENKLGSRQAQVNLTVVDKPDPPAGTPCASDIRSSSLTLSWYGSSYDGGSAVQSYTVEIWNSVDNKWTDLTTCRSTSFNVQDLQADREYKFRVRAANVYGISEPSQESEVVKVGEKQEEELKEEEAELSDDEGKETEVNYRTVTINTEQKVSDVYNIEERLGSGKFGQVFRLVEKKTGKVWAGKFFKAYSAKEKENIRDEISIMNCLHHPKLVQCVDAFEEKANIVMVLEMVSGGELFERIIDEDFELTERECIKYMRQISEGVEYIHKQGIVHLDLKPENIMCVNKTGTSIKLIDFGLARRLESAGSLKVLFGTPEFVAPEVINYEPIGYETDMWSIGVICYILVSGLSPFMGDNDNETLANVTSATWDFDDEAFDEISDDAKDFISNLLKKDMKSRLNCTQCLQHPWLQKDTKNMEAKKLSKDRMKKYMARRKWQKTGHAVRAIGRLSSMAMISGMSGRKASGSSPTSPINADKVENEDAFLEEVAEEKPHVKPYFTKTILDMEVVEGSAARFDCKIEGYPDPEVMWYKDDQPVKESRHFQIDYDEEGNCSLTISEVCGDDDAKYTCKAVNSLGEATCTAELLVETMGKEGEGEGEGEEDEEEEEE

Protein kinase C (PKC) = assay: Inhibition of Protein kinase C of Rat brain

SMILES: COCc1ccc2c(c1)c1c3c(c4c5cc(COC)ccc5n5c4c1n2C1C[C@](O)(C(=O)OC)[C@]5(C)O1)CNC3=O
Control [1]: 168%
Control [2]: 193%
Control [3]: 340%
IC50 [4]: 270 nM
Control [5]: 218%

SMILES: C=CCSCc1ccc2c(c1)c1c3c(c4c5cc(CSCC=C)ccc5n5c4c1n2C1C[C@](O)(C(=O)OC)[C@]5(C)O1)CNC3=O
Control [1]: < 120%
Control [2]: < 120%
Control [3]: 191%
IC50 [4]: > 1000 nM
Control [5]: 302%

SMILES: CCCSCc1ccc2c(c1)c1c3c(c4c5cc(CSCCC)ccc5n5c4c1n2C1C[C@](O)(C(=O)OC)[C@]5(C)O1)CNC3=O
Control [1]: < 120%
Control [2]: < 120%
Control [3]: 180%
IC50 [4]: > 1000 nM
Control [5]: 315%

SMILES: CCCCSCc1ccc2c(c1)c1c3c(c4c5cc(CSCCCC)ccc5n5c4c1n2C1C[C@](O)(C(=O)OC)[C@]5(C)O1)CNC3=O
Control [1]: 143%
Control [2]: < 120%
Control [3]: 200%
IC50 [4]: > 1000 nM
Control [5]: 289%

SMILES: CCSCc1ccc2c(c1)c1c3c(c4c5cc(CSCC)ccc5n5c4c1n2C1C[C@](O)(C(=O)OC)[C@]5(C)O1)CNC3=O
Control [1]: 143%
IC50 [6]: > 10000 nM
Control [2]: 140%
Control [3]: 363%
IC50 [4]: > 1000 nM
Control [5]: 280%
IC50 [7]: > 10000 nM
IC50 (Protein kinase C (PKC)): 16300 nM

Control [1]: < 120%
Control [2]: < 120%
Control [3]: 158%
Control [5]: 208%
SMILES: COC(=O)[C@@]1(O)CC2O[C@]1(C)n1c3ccc(CSCCN(C)C)cc3c3c4c(c5c6cc(CSCCN(C)C)ccc6n2c5c31)C(=O)NC4

Control [2]: < 120%
Control [5]: < 120%
SMILES: COC(=O)[C@@]1(O)CC2O[C@]1(C)n1c3ccc(CO)cc3c3c4c(c5c6cc(CO)ccc6n2c5c31)C(=O)NC4

SMILES: COC(=O)[C@@]1(O)CC2O[C@]1(C)n1c3ccc(CSC(C)C)cc3c3c4c(c5c6cc(CSC(C)C)ccc6n2c5c31)C(=O)NC4
Control [1]: 224%
Control [2]: < 120%
IC50 [4]: > 1000 nM
Control [5]: 289%

SMILES: COC(=O)[C@@]1(O)C[C@H]2O[C@]1(C)n1c3ccccc3c3c4c(c5c6ccccc6n2c5c31)C(=O)NC4 [K-252A]
Control [1]: 148%
IC50 [6]: 16 nM
Control [2]: < 120%
Control [3]: 325%
Control [5]: 186%
IC50 [7]: 20 nM

SMILES: CCOCc1ccc2c(c1)c1c3c(c4c5cc(COCC)ccc5n5c4c1n2C1C[C@](O)(C(=O)OC)[C@]5(C)O1)CNC3=O
Control [1]: < 120%
Control [2]: 153%
Control [3]: 237%
IC50 [4]: 210 nM
Control [5]: 188%
